The text below walks through data of patent US11684614B2, “Formulations of hydroxypyridonate actinide/lanthanide decorporation agents” (priority 2017, dated 2023).

Data set [1] in a line: Plasma protein binding, rat. It counts as in vitro ADME. The following applies: tested at 10 μg/ml. How it is done: (§1) Plasma protein binding differed across species; it was greatest in dog (95%), intermediate in human (29%), and lowest in rat (5%) when tested at 10 μg/ml.
Data set [2] can be described thus: Non-GLP 7-day repeat dose beagle dog study, safety findings (SRI No. B677-13). In kind it is in vivo, beagle dogs. An excerpt: Clinical observations that were associated with test article administration included post-dose diarrhea and emesis. Specifically, dogs in the mid- and high-dose groups experienced slight or extreme diarrhea on Day 1 between 1 and 6 hr post-dose. Diarrhea was absent from the lowdose group. […] By Day 2, 8 of the 9 affected dogs were normal, with the exception of one highdose group female that had continued slight diarrhea. Slight to moderate emesis occurred <2 hr post-dose (and oftentimes <1 hr post-dose) in 1-3 dogs from each of the 3,4,3-L1(1,2-HOPO) treatment groups and in none of the vehicle control-treated dogs. Post-dose emesis appeared to be dose-dependent since it occurred in 0, 1, 2, and 3 dogs out of 12 dogs per group in control, low, mid, and high dose groups, respectively. Post-dose emesis is a common response to oral dose administration in dogs, and a single occurrence of it in the low dose group could be […] rather than test article-related and is not considered a dose-limiting event. Slight post-dose emesis in this one male dog was the only finding present in the 37.5 mg/kg lowdose treatment group.
No similar renal histopathology findings were found in any of the other on-study dogs. The observation of hemosiderin without fibrosis in the kidney sections from this one dog is consistent with the renal findings having developed within one to three days prior to the Day 15 necropsy. This dog also had corresponding small increases (1.8- and 1.3-fold, respectively) in the renal function markers BUN and CR on Day 15 relative to pre-test. The timing of the renal findings in this recovery group dog is surprising given the fact that 3,4,3-L1(1,2-HOPO) was administered only on Day 1. Therefore, it is unclear if these renal findings are related specifically to high-dose administration of 3,4,3-L1(1,2-HOPO). There were no toxicologically meaningful histopathology findings in any of the dogs on Day 2 or in any of the other dogs on Day 15. Similar renal findings were also absent from the non-GLP 7-day repeat dose dog study (SRI No. B677-13) where 2 dogs/sex received formulated material at higher doses for 4 days followed by equivalent doses for 3 days and then were sacrificed on Day 8.
An evaluation of the serum levels of iron, unsaturated iron binding capacity, total iron binding capacity, magnesium, and ferritin were included in the clinical pathology analysis during the dog safety studies because 3,4,3-L1(1,2-HOPO) is a potent metal chelator.

Data set [3] in a line: Plasma protein binding, dog. In kind it is in vitro ADME. The following applies: tested at 10 μg/ml. As for the experimental part: as §1
A short description of data set [4]: 28-day oral gavage study in Sprague Dawley rats (SRI No. M512-07). In kind it is in vivo.
A short description of data set [5]: Radiolabeled in vivo ADME study in rats (with metabolite profiling). Also noted: species or system Sprague Dawley rats. An excerpt: Formulated material was used in the single dose in vivo ADME characterization studies in Sprague Dawley rats and Swiss-Webster mice with 14C-labeled 3,4,3-L1(1,2-HOPO).
Pharmacokinetic parameters and disposition/biodistribution of 3,4,3-L1(1,2-HOPO) were characterized in vivo (with the aid of two 14C labels on the spermine backbone of the parent product) in two non-GLP studies using Swiss-Webster mice and Sprague Dawley rats. The study designs for these two studies are shown in TABLE 5.1 and TABLE 5.2, respectively. Groups of six mice (3 male, 3 female) were given a single dose of [14C]-3,4,3-L1(1,2-HOPO) via iv, ip, or po routes, respectively. An additional group of six mice (3 male, 3 female) were administered the 14C-labeled API with permeability enhancer (10% sodium oleate) by oral gavage (po). Similarly, groups of six rats (3 male, 3 female) were administered a single iv dose of the 14C-labeled API or a single po dose of the 14C-labeled API with 10% sodium oleate. In each of these studies, samples were collected at scheduled time points up to 24 hr post-dose and analyzed for 14C content using liquid scintillation counting. Blood, liver, kidney, feces and urine were collected and analyzed from the mice. Blood, brain, liver, kidney, lungs, spleen, skeletal muscle tissues, gastrointestinal (GI) tract samples, carcasses, feces, and urine were collected and analyzed from the rats.
The principal excretion routes of radioactivity from [14C]-3,4,3-L1(1,2-HOPO) were both the feces and urine after an iv dose based on high levels of radioactivity in both feces and urine as well as significant radioactivity in the excretory tissues, kidney, liver and GI tract. Fecal elimination by 24 hr post-dose accounted for approximately 62% and 16% of the iv administered dose in mice and rats, respectively. Urinary excretion accounted for approximately 12-23% of the iv administered dose in these rodents with renal excretion of 14C beginning as early as 5 min after iv injection in mice. In contrast, following oral administration, excretion was primarily by the fecal route accounting for approximately 89% and 41% of the orally administered dose in mice and rats, respectively, by 24 h post-dose. Urinary excretion accounted for <1% of the orally administered dose and low radioactivity levels were detected in systemic circulation and in tissues except for the GI tract. […] Based on the colonic transit time in rats of 15.5 hr, 11 the radioactivity found in the feces in the first 24 hr after po administration is most likely unabsorbed compound. […] Metabolite profiling of [14C]-3,4,3-L1(1,2-HOPO) was performed using an HPLC method on selected urine, feces, kidney, liver, and lung samples from the Sprague Dawley rat. Only samples containing the highest total radioactive levels were selected for analysis. A total of 11 peaks were detected, of which 6 were from uncharacterized interactions between the test article and matrix components because they were also seen in spiked blank matrix controls. These 6 peaks are not metabolites and are considered alternate forms of the parent compound (e.g. complexes of the test article with metallic ions). The 5 other radioactive species (peaks P1-P4 and P10) are considered potential metabolites. Feces-specific metabolite peaks P2, P3, and P10 represented a combined 10.5-11.4% and 0.5-4.2% of the administered dose after po or iv administration, respectively, in rats. Peak P10 was the most abundant peak in all samples analyzed. It represented up to 10% of the administered dose in feces after po administration while the other two feces-specific peaks represented <1% of the administered dose after po administration. Peak P10 was also the predominant, and sometimes the only, peak in feces samples after iv administration. […]

The mark [6] stands for this setting: after treatment, 2 dogs/sex, no control group.

In general, Tmax refers to the time at which the peak concentration occurs. Turning to `O=C(NCCCN(CCCCN(CCCNC(=O)c1cccc(=O)n1O)C(=O)c1cccc(=O)n1O)C(=O)c1cccc(=O)n1O)c1cccc(=O)n1O` [3,4,3-L1(1,2-HOPO)], the Plasma protein binding in data set [1] is 5%; in data set [3], 95%. The renal findings result is recorded as “absent” in data set [2] (7-day repeat dose, sacrificed on Day 8) and “no renal findings” in data set [4] (28 days of oral gavage). The “decrease in unsaturated iron binding capacity” value in data set [2] (setting [6]) was 16-62%. Further, the “increase in serum total iron levels compared with pretest” value in data set [2] (setting [6]) was around 2 fold. The emesis and diarrhea result in data set [2] (formulated capsules once daily for 7 days, 75.1, 150, or 300 mg/kg, ~1 hr post-dose) was “dose dependent, transient emesis and diarrhea”. The “soft stools or diarrhea” value in data set [4] (oral gavage 7.7-76.9 mg/kg (10-102 μmol/kg) for 28 days) was “not observed”. Moreover, the “oral bioavailability (F) of radioactive compound” value in data set [5] (female rats) is reported as 1.1%; in data set [5] (male rats), 0.4%. The “mean t½” value in data set [5] (oral administration, rats) is around 60 min. Moreover, the Tmax in data set [5] (oral dose, rodents (rats)) was around 42 min.
